Tests used:
[1] = test system: monoacylglycerol lipase (MGL); conditions: cited from earlier work
[2] = test system: rat model of chronic kidney disease (CKD) via 5/6 nephrectomy; assay: JZL184 in rat 5/6 nephrectomy model of chronic kidney disease; type: in vivo, male Sprague-Dawley rats; conditions: CKD rats, 4 weeks
Method: (§1) We used a well-known experimental tool, JZL184, which inhibits the enzyme responsible for breakdown of 2-AG, monoacylglycerol lipase (MGL), to determine the effect of increased tissue 2-AG levels on markers of renal function in animal models of chronic kidney disease (CKD). JZL184 was administered intraperitoneally in a well-established rat and mouse model of chronic kidney disease (CKD) (FIG. 8).
(§2) Therefore, we induced CKD in animals via 5/6 nephrectomy (surgical removal of one entire kidney in addition to 2/3 of the contralateral kidney which results in significant renal mass reduction and development of kidney failure over 6-10 weeks) in two separate studies (one set in rats and one set in mice).
In the rats, male Sprague-Dawley rats underwent 5/6 nephrectomy versus sham surgery and after two weeks were randomized to 4 groups: sham surgery, CKD treated with vehicle, CKD treated with 4 mg/kg JZL184 and CKD treated with 8 mg/kg JZL184 (n=6-8). During and at the end of the study, non-invasive blood pressure measurements were performed using tail-cuff plethysmography. Before sacrifice, a 24-hour urine sample was collected and evaluated for urine protein and creatinine to assess for degree of proteinuria (degree of proteinuria is a marker of glomerular and interstitial kidney damage in advanced CKD). After sacrifice, serum was obtained to assess for renal function. […] This was associated reduced systolic blood pressure and decreased rate of urine protein excretion.

[3] = test system: mouse model of chronic kidney disease (CKD) via 5/6 nephrectomy; assay: JZL184 in mouse 5/6 nephrectomy model of chronic kidney disease; type: in vivo, Male C57BL/6J mice; conditions: CKD mice, JZL184 4 mg/kg, 4 weeks; FIG. 12
Method: as §1, §2
We performed a similar experiment in mice. Male C57BL/6J mice underwent sham surgery versus 5/6 nephrectomy to induce CKD and two weeks after surgery were randomized to vehicle versus JZL184 therapy (4 mg/kg). Treated animals received JZL184 (4 mg/kg) for an additional 4 weeks (FIG. 11).

[4] = JZL184 4 or 8 mg/kg intraperitoneal, FIG. 9

O=C(Oc1ccc([N+](=O)[O-])cc1)N1CCC(C(O)(c2ccc3c(c2)OCO3)c2ccc3c(c2)OCO3)CC1 [JZL184, 4-nitrophenyl-4-(dibenzo[d][1,3]dioxol-5-yl(hydroxy)methyl)piperidine-1-carboxylate]
overt symptoms of endocannabinoid activation in the central nervous system ([1]; 4 mg/kg in mice and 4-8 mg/kg in rats, have been shown (prior work)): without causing overt symptoms
brain and kidney levels of 2-AG ([1]; has been shown (prior work)): significantly increase
cerebral cortex 2-AG concentration [2, 4]: significant increase
renal 2-AG concentration [2, 4]: significant increase
rate of urine protein excretion ([2]; JZL184 4 or 8 mg/kg, 24-hour urine, FIG. 10): decreased
renal function (serum) ([2]; JZL184 4 or 8 mg/kg, FIG. 10): signal toward improved renal function
systolic blood pressure ([2]; JZL184 4 or 8 mg/kg, tail-cuff plethysmography, FIG. 10): reduced
blood pressure [3]: significant improvement
serum BUN concentration [3]: reduced
urinary protein excretion [3]: decreased

— patent US20210267959A1, “METHODS OF TREATING RENAL DISEASE” (The Regents of the University of California, priority 2018, published 2021)
